Substitutions are numbered along the chain they refer to. Where only a bound is given, the exact number is not on record here.

Assay [1] has as its target T1, 5-HT1F (Homo sapiens, UniProt P30939, F310A).
T1 sequence (P30939 1-366 F310A): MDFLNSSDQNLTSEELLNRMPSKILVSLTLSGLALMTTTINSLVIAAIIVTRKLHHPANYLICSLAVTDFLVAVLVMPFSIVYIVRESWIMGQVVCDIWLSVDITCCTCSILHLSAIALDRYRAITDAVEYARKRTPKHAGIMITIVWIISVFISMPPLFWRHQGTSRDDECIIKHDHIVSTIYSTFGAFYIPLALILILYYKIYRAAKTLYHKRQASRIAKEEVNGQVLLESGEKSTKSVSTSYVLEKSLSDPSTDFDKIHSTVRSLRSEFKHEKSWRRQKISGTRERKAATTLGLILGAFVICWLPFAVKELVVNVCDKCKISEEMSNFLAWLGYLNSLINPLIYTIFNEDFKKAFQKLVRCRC
The assay is described as follows: NanoBiT Gi recruitment assay. Format: cell-based.

Assay [2] concerns the target T2, 5-HT1F (Homo sapiens, UniProt P30939, I104A).
T2 sequence (P30939 1-366 I104A): T1 sequence (P30939 1-366 F310A) with I104A, A310F
The assay is described as follows: NanoBiT Gi recruitment assay. The assay is classed as cell-based.

Assay [3] deals with T3, 5-HT1F (Homo sapiens, UniProt P30939).
T3 sequence (P30939 1-366): T1 sequence (P30939 1-366 F310A) with A310F
In words: NanoBiT Gi recruitment assay. The assay is classed as cell-based.

The target of assay [4] is 5-HT1F–Gi1 complex (Homo sapiens, UniProt P30939). The assay is described as follows: cryo-EM structure, […] Å. Conditions: orthosteric and extended binding pocket; 10 μM lasmiditan, pH 7.4.

For `CN1CCC(C(=O)c2cccc(NC(=O)c3c(F)cc(F)cc3F)n2)CC1` [lasmiditan], the figures for the half-maximal effective concentration (EC50) in assay [1], in assay [2] and in assay [3] were > 100000 nM, 2190 nM and 30.2 nM, respectively. In assay [4], the “cryo-EM structure, 3.4 Å” value is given as “the lasmiditan-bound 5-HT1F–Gi complex”.

What is called EC50 is the midpoint of the concentration-response curve. Read a high EC50 as a need for much substance.
